Assay results from patent US20210045385A1, “PYRIDAZINONE-SUBSTITUTED KETOXIMES AS HERBICIDES” (FMC Corporation, priority 2018, published 2021).

Columns and labels:
Format in all cases: in vivo
[1] = tested on: Italian ryegrass (Lolium mutiflorum); assay: Test C preemergence, visual plant response rating; conditions: Test C, 0 is no effect, 100 is complete control
Method in brief: (§1)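 Visual injury on a 0 (no effect) to 100 (complete control) scale versus untreated controls, scored approximately 10 d after treatment under greenhouse conditions. Treatments used surfactant-containing non-phytotoxic solvent formulations, sprayed onto loam–sand soil preemergence or onto one- to two-leaf plants 2–10 cm tall postemergence.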

[2] = tested on: barnyardgrass (Echinochloa crus-galli); assay: Test C preemergence, visual plant response rating; conditions: Test C, 0 is no effect, 100 is complete control
Method in brief: as §1

[3] = tested on: foxtail, giant (giant foxtail, Setaria faberi); assay: Test C preemergence, visual plant response rating; conditions: Test C, 0 is no effect, 100 is complete control
Method in brief: as §1

kochia (Bassia scoparia) [4] = assay: Test C preemergence, visual plant response rating; conditions: Test C, 0 is no effect, 100 is complete control
Method in brief: as §1

[5] = tested on: pigweed (Amaranthus retroflexus); assay: Test C preemergence, visual plant response rating; conditions: Test C, 0 is no effect, 100 is complete control
Method in brief: as §1

[6] = tested on: ragweed (common ragweed, Ambrosia artemisiifolia); assay: Test C preemergence, visual plant response rating; conditions: Test C, 0 is no effect, 100 is complete control
Method in brief: as §1

[7] = tested on: Italian ryegrass (Lolium mutiflorum); assay: Test C postemergence, visual plant response rating
Method in brief: as §1

[8] = tested on: barnyardgrass (Echinochloa crus-galli); assay: Test C postemergence, visual plant response rating
Method in brief: as §1

[9] = tested on: blackgrass (Alopecurus myosuroides); assay: Test C postemergence, visual plant response rating
Method in brief: as §1

corn (Zea mays) = assay: Test C postemergence, visual plant response rating
Method in brief: as §1

[10] = tested on: foxtail, giant (giant foxtail, Setaria faberi); assay: Test C postemergence, visual plant response rating
Method in brief: as §1

[11] = tested on: galium (catchweed bedstraw, Galium aparine); assay: Test C postemergence, visual plant response rating
Method in brief: as §1

kochia (Bassia scoparia) [12] = assay: Test C postemergence, visual plant response rating
Method in brief: as §1

[13] = tested on: pigweed (Amaranthus retroflexus); assay: Test C postemergence, visual plant response rating
Method in brief: as §1

[14] = tested on: ragweed (common ragweed, Ambrosia artemisiifolia); assay: Test C postemergence, visual plant response rating
Method in brief: as §1

[15] = tested on: wheat (Triticum aestivum); assay: Test C postemergence, visual plant response rating
Method in brief: as §1

[16] = tested on: barnyardgrass (Echinochloa crus-galli); assay: Test D flooded paddy test, visual plant response rating; conditions: 250 g ai/ha, scale 0 to 100 (0 no effect, 100 complete control), 13 to 15 d
Method in brief: (§2)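 Visual injury scores, 0 (no effect) to 100 (complete control), were assigned after 13 to 15 d in the greenhouse by comparison with controls. Test compounds had been added to paddy water covering soil by 3 cm at the 2-leaf stage.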

[17] = tested on: duck salad (Heteranthera limosa); assay: as above; conditions: 250 g ai/ha, scale 0 to 100 (0 no effect, 100 complete control), 13 to 15 d
Method in brief: as §2

rice (Oryza sativa) = assay: as above; conditions: 250 g ai/ha, scale 0 to 100 (0 no effect, 100 complete control), 13 to 15 d
Method in brief: as §2

[18] = tested on: sedge umbrella (small-flower umbrella sedge, Cyperus difformis); assay: as above; conditions: 250 g ai/ha, scale 0 to 100 (0 no effect, 100 complete control), 13 to 15 d
Method in brief: as §2

[19] = Test C, postemergence, 125 g ai/ha

SMILES	Ryegrass, Italian plant response rating (0 to 100 scale) ([1]; 31 g ai/ha)	Ryegrass, Italian plant response rating (0 to 100 scale) ([1]; 125 g ai/ha)	Barnyardgrass plant response rating (0 to 100 scale) ([2]; 31 g ai/ha)	Barnyardgrass plant response rating (0 to 100 scale) ([2]; 125 g ai/ha)	Foxtail, Giant plant response rating (0 to 100 scale) ([3]; 31 g ai/ha)	Foxtail, Giant plant response rating (0 to 100 scale) ([3]; 125 g ai/ha)	Kochia plant response rating (0 to 100 scale) (kochia (Bassia scoparia) [4]; 31 g ai/ha)	Kochia plant response rating (0 to 100 scale) (kochia (Bassia scoparia) [4]; 125 g ai/ha)	Pigweed plant response rating (0 to 100 scale) ([5]; 31 g ai/ha)	Pigweed plant response rating (0 to 100 scale) ([5]; 125 g ai/ha)	Ragweed plant response rating (0 to 100 scale) ([6]; 31 g ai/ha)	Ragweed plant response rating (0 to 100 scale) ([6]; 125 g ai/ha)	Ryegrass, Italian plant response rating (0 to 100 scale) ([7]; Postemergence, 31 g ai/ha)	Ryegrass, Italian plant response rating (0 to 100 scale) [7, 19]	Barnyardgrass plant response rating (0 to 100 scale) ([8]; Postemergence, 31 g ai/ha)	Barnyardgrass plant response rating (0 to 100 scale) [8, 19]	Blackgrass plant response rating (0 to 100 scale) ([9]; Postemergence, 31 g ai/ha)	Blackgrass plant response rating (0 to 100 scale) [9, 19]	Corn plant response rating (0 to 100 scale) (corn (Zea mays); Postemergence, 31 g ai/ha)	Corn plant response rating (0 to 100 scale) (corn (Zea mays); [19])	other results
CO/N=C(\c1c(O)c(C)nn(C)c1=O)c1cc(SC)cc2ccccc12 [Compound 279]	0	0	0	0	0	0	0	0	0	0	0	0	0	0	0	0	0	0	0	0	Foxtail, Giant plant response rating (0 to 100 scale) ([10]; Postemergence, 31 g ai/ha): 0; Foxtail, Giant plant response rating (0 to 100 scale) [10, 19]: 0; Galium plant response rating (0 to 100 scale) ([11]; Postemergence, 31 g ai/ha): 0; Galium plant response rating (0 to 100 scale) [11, 19]: 0; Kochia plant response rating (0 to 100 scale) (kochia (Bassia scoparia) [12]; Postemergence, 31 g ai/ha): 0; Kochia plant response rating (0 to 100 scale) (kochia (Bassia scoparia) [12]; [19]): 30; Pigweed plant response rating (0 to 100 scale) ([13]; Postemergence, 31 g ai/ha): 0; Pigweed plant response rating (0 to 100 scale) [13, 19]: 10; Ragweed plant response rating (0 to 100 scale) ([14]; Postemergence, 31 g ai/ha): 0; Ragweed plant response rating (0 to 100 scale) [14, 19]: 10; Wheat plant response rating (0 to 100 scale) ([15]; Postemergence, 31 g ai/ha): 0; Wheat plant response rating (0 to 100 scale) [15, 19]: 0; Plant response rating, Barnyardgrass (Flood) [16]: 0; Plant response rating, Ducksalad (Flood) [17]: 0; Plant response rating, Rice (Flood) (rice (Oryza sativa)): 0; Plant response rating, Sedge, Umbrella (Flood) [18]: 0
CO/N=C(/c1cccc(/C=C/Cl)c1)c1c(O)c(C)nn(C)c1=O [Compound 285]	0	10	0	0	0	0	0	0	0	0	0	10	0	0	20	30	0	10	0	0	Foxtail, Giant plant response rating (0 to 100 scale) ([10]; Postemergence, 31 g ai/ha): 10; Foxtail, Giant plant response rating (0 to 100 scale) [10, 19]: 20; Galium plant response rating (0 to 100 scale) ([11]; Postemergence, 31 g ai/ha): 50; Galium plant response rating (0 to 100 scale) [11, 19]: 60; Kochia plant response rating (0 to 100 scale) (kochia (Bassia scoparia) [12]; Postemergence, 31 g ai/ha): 10; Kochia plant response rating (0 to 100 scale) (kochia (Bassia scoparia) [12]; [19]): 20; Pigweed plant response rating (0 to 100 scale) ([13]; Postemergence, 31 g ai/ha): 0; Pigweed plant response rating (0 to 100 scale) [13, 19]: 70; Ragweed plant response rating (0 to 100 scale) ([14]; Postemergence, 31 g ai/ha): 30; Ragweed plant response rating (0 to 100 scale) [14, 19]: 60; Wheat plant response rating (0 to 100 scale) ([15]; Postemergence, 31 g ai/ha): 0; Wheat plant response rating (0 to 100 scale) [15, 19]: 0; Plant response rating, Barnyardgrass (Flood) [16]: 0; Plant response rating, Ducksalad (Flood) [17]: 0; Plant response rating, Rice (Flood) (rice (Oryza sativa)): 0; Plant response rating, Sedge, Umbrella (Flood) [18]: 0
